Measurements as given in ChEMBL document CHEMBL1133616, “Synthesis and structure-activity relationships of a new set of 2-arylpyrazolo[3,4-c]quinoline derivatives as adenosine receptor antagonists” (J Med Chem, 2000).
pKi: −log10 of the molar value.

Columns and labels:
Adenosine receptor A3 = target: T1, Adenosine receptor A3 (Homo sapiens, UniProt P0DMS8); assay: Displacement of specific [125I]AB-MECA binding at human adenosine A3 receptor expressed in CHO cells; format: cell-based
T1 sequence (P0DMS8 whole entry): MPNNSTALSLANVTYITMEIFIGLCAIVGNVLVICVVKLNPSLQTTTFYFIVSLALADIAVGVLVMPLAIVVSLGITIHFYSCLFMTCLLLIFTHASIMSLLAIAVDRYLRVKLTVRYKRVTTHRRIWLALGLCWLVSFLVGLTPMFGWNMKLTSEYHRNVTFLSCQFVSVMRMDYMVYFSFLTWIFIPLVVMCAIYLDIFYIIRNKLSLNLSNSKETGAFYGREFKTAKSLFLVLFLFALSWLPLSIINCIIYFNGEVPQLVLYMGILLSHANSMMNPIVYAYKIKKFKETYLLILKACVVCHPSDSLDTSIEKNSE

Adenosine receptor A1 = target: T2, Adenosine receptor A1 (Bos taurus, UniProt P28190); assay: Displacement of specific [3H]CHA binding at adenosine A1 receptor in bovine brain membranes; format: cell membranes
T2 sequence (P28190 whole entry): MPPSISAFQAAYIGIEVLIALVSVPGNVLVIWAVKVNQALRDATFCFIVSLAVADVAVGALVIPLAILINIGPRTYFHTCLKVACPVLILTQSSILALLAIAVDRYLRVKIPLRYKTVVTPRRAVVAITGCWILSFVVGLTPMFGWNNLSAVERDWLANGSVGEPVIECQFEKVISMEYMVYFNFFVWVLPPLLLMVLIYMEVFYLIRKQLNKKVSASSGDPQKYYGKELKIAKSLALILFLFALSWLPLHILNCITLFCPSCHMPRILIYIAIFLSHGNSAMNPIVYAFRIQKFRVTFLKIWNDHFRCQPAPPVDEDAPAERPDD

[1] = target: Adenosine receptor A2a (Bos taurus); assay: Displacement of specific [3H]-CGS- 21680 binding at Adenosine A2A receptor in bovine striatal membranes.
[2] = tested on: Adenosine receptor A2a (Bos taurus); assay: Inhibition of specific [3H]-CGS- 21680 binding at Adenosine A2A receptor in bovine striatal membranes at 20 uM.; conditions: Striatum, Membrane
[3] = target: T3, Adenosine receptor A1 (Bos taurus) (UniProt P28190); assay: Inhibition of [3H]CHA binding at Adenosine A1 receptor in bovine brain membranes at 20 uM; format: cell membranes
T3 sequence (whole entry): T2 sequence (P28190 whole entry)

[4] = target: T4, Adenosine receptor A3 (Homo sapiens) (UniProt P0DMS8); assay: Inhibition of [125I]AB-MECA binding to human Adenosine A3 receptor expressed in CHO cells at 1 uM; format: cell-based
T4 sequence (whole entry): T1 sequence (P0DMS8 whole entry)

SMILES | pKi (Adenosine receptor A3) | pKi (Adenosine receptor A1) | pKi [1] | inhibition [2] [%] | inhibition [3] [%] | inhibition [4] [%]
Nc1nc2ccccc2c2cn(-c3cccc(F)c3)nc12 | 6.10 | 6.96 |  |  |  | 
O=c1[nH]c2ccc(Cl)cc2c2cn(-c3ccccc3)nc12 | 7.36 | 6.55 |  |  |  | 
O=C(Cc1ccccc1)Nc1nc2ccccc2c2cn(-c3ccccc3)nc12 | 8.00 | 6.97 |  |  |  | 
Nc1nc2ccc(Cl)cc2c2cn(-c3ccccc3)nc12 | 6.51 | 7.06 | 5.24 |  |  | 
Cc1cccc(-n2cc3c(n2)c(=O)[nH]c2ccccc23)c1 | 8.30 | 6.08 |  | 17 |  | 
c1ccc(-n2cc3c(n2)c(NC2CCCC2)nc2ccccc23)cc1 | 7.22 | 8.49 | 6.07 |  |  | 
O=C(NCc1ccccc1)Nc1nc2ccccc2c2cn(-c3ccccc3)nc12 | 8.08 | 6.73 |  | 5 |  | 
c1ccc(CNc2nc3ccccc3c3cn(-c4ccccc4)nc23)cc1 | 7.45 | 6.88 | 5.27 |  |  | 
Oc1nc2ccccc2c2cn(-c3cccc(F)c3)nc12 | 7.34 | 6.23 |  | 0 |  | 
Fc1cccc(-n2cc3c(n2)c(NC2CCCCC2)nc2ccccc23)c1 | 6.81 | 7.26 |  |  |  | 
Cc1ccc(-n2cc3c(n2)c(N)nc2ccccc23)cc1 | 6.73 | 6.67 |  |  |  | 
O=C(Nc1ccccc1)Nc1nc2ccccc2c2cn(-c3ccccc3)nc12 | 6.97 | 5.82 |  | 32 |  | 
O=C(Nc1nc2ccccc2c2cn(-c3ccccc3)nc12)c1ccccc1 | 8.68 |  |  |  | 42 | 
Clc1ccc2nc(NC3CCCCC3)c3nn(-c4ccccc4)cc3c2c1 | 5.67 | 7.57 | 5.38 |  |  | 
c1ccc(-n2cc3c(n2)c(NC2CCCCC2)nc2ccccc23)cc1 | 6.15 | 8.07 |  |  |  | 
Cc1ccccc1-n1cc2c(n1)c(O)nc1ccccc12 |  |  |  | 0 |  | 
O=c1[nH]c2ccccc2c2cn(-c3ccc(Cl)cc3)nc12 | 8.54 | 6.33 |  |  |  | 
Oc1nc2ccccc2c2cn(-c3ccc(Cl)cc3)nc12 |  |  |  | 35 |  | 
Cc1ccccc1-n1cc2c(n1)c(=O)[nH]c1ccccc12 | 7.10 | 5.49 |  |  |  | 
Nc1nc2ccccc2c2cn(-c3ccccc3)nc12 | 6.26 | 7.16 |  |  |  | 
Cn1c(=O)c2nn(-c3ccccc3)cc2c2ccccc21 | 6.93 | 5.91 |  |  |  | 
CC(=O)Nc1nc2ccccc2c2cn(-c3ccccc3)nc12 | 7.32 | 7.12 |  |  |  | 
Cc1ccccc1-n1cc2c(n1)c(NC1CCCC1)nc1ccccc12 | 6.82 | 6.83 |  |  |  | 
c1ccc(CCNc2nc3ccccc3c3cn(-c4ccccc4)nc23)cc1 | 7.48 | 7.22 |  |  |  | 
Cc1cccc(-n2cc3c(n2)c(N)nc2ccccc23)c1 | 7.00 | 6.89 | 5.43 |  |  | 
Nc1nc2ccccc2c2cn(-c3ccc(Cl)cc3)nc12 | 6.82 |  |  |  |  | 

The remaining lines, values ahead:

pKi (Adenosine receptor A3) | pKi (Adenosine receptor A1) | pKi [1] | inhibition [2] [%] | inhibition [3] [%] | inhibition [4] [%] | SMILES
7.04 | 6.62 |  |  |  |  | COc1ccc(-n2cc3c(n2)c(N)nc2ccccc23)cc1
 |  |  | 52 |  |  | Oc1nc2ccc(Cl)cc2c2cn(-c3ccccc3)nc12
7.36 | 7.65 | 4.94 |  |  |  | Cc1cccc(-n2cc3c(n2)c(NC2CCCCC2)nc2ccccc23)c1
7.65 | 7.39 |  |  |  |  | Cc1cccc(-n2cc3c(n2)c(NC2CCCC2)nc2ccccc23)c1
7.51 |  |  |  |  |  | O=c1[nH]c2ccccc2c2cn(-c3ccccc3)nc12
6.94 | 7.14 |  |  |  |  | Cc1ccc(-n2cc3c(n2)c(NC2CCCCC2)nc2ccccc23)cc1
8.49 | 5.41 |  |  |  |  | Cc1ccc(-n2cc3c(n2)c(=O)[nH]c2ccccc23)cc1
 | 8.03 | 5.66 |  |  | 34 | Fc1cccc(-n2cc3c(n2)c(NC2CCCC2)nc2ccccc23)c1
7.16 | 6.02 |  |  |  |  | CCCn1c(=O)c2nn(-c3ccccc3)cc2c2ccccc21
7.25 | 6.32 |  | 8 |  |  | Clc1ccc(-n2cc3c(n2)c(NC2CCCCC2)nc2ccccc23)cc1
5.44 | 6.28 | 5.80 |  |  |  | Cc1ccccc1-n1cc2c(n1)c(N)nc1ccccc12
8.49 | 5.97 |  | 18 |  |  | COc1ccc(-n2cc3c(n2)c(=O)[nH]c2ccccc23)cc1
